In US5674432A, “Photochromic naphthopyran compounds” (Transitions Optical, Inc., priority 1995, dated 1997):

Tests used:
[1] = lambda max (UV) in diethylene glycol dimethyl ether solution by UV spectrophotometer; assay type: physicochemical; set-up: unit not given here; details: approximately 0.5 milligram per milliliter, wavelength in the ultraviolet range closest to the visible spectrum
Experimental: The compounds of the Examples and the Comparative Examples were dissolved in diethylene glycol dimethyl ether. The concentrations of the resulting solutions were approximately 0.5 milligram per milliliter. Each solution was tested in a UV spectrophotometer to determine the lambda max (U/V). The lambda max (UV) reported in Table 1 for each of the Examples is the wavelength in the ultraviolet range closest to the visible spectrum.

[2] = lambda max (VIS) of the activated (colored) form in a homopolymer of diethylene glycol bis(allyl carbonate); assay type: physicochemical
Experimental: (§1) Testing was done with selected photochromic naphthopyrans imbibed into test square polymerizates by a thermal transfer process. The test square polymerizates were prepared from a homopolymer of diethylene glycol bis(allyl carbonate) and measured 1/8 inch (0.3 centimeters)×2 inches (5.1 centimeters)×2 inches (5.1 centimeters). The test squares were imbibed by the following procedure. Each naphthopyran was dissolved .into toluene to form a 4 weight percent solution of the compound. A piece of No.4 Whatman filter paper was saturated with the naphthopyran toluene solution and allowed to air dry. The dried filter paper was placed on one side of the test square. A piece of untreated filter paper was placed on the other side of the polymeric test square and the resulting sandwich was placed between two flat aluminum metal plates. The entire assembly was then placed in an oven kept at 135° to 155° C. for a time sufficient to thermally transfer the naphthopyran into the polymeric test square. After cooling, each test square was washed with acetone.
The photochromic test squares of Part B were tested for photochromic response rates on an optical bench. Prior to testing on the optical bench, the photochromic test squares were exposed to 365 nanometer ultraviolet light for about 15 minutes to activate the photochromic compounds and then placed into a 76° C. oven for about 15 minutes to bleach or inactivate the photochromic compounds. The test squares were then cooled to room temperature, exposed to fluorescent room lighting for at least 2 hours and then kept covered for at least 2 hours prior to testing on an optical bench maintained at 75° F. (23.9° C.).
(§2) The optical bench comprises a 150 watt Xenon arc lamp, a tungsten lamp, power supplies for both lamps, condensing lenses as needed to maintain collimated light beams from both lamps, a remote controlled shutter, a copper sulfate bath acting as a heat sink for the arc lamp, a Schott WG-320 nm cut-off filter which removes short wavelength radiation, neutral density filter(s), a sample holder in which the sample to be tested is inserted, a photopic filter, light detector, and radiometer assembly, a strip chart recorder, and a means for maintaining the alignment of the aforestated components during testing.
(§3) The ΔOD/Min, which represents the sensitivity of the photochromic compound's response to UV light, was measured over the first five (5) seconds of UV exposure, then expressed on a per minute basis. The saturation optical density (OD) was taken under identical conditions as the ΔOD/Min, except UV exposure was continued for 20 minutes. The lambda max (VIS) reported in Table 2 is the wavelength in the visible spectrum at which the maximum absorption of the activated (colored) form of the photochromic compound in a homopolymer of diethylene glycol bis(allyl carbonate) occurs. The bleach rate (T 1/2) is the time interval in seconds for the absorbance of the activated form of the naphthopyran in the test squares to reach one half the highest absorbance at room temperature (75° F., 23.9° C.) after removal of the source of activating light.

[3] = photochromic response on an optical bench (sensitivity, saturation optical density, bleach rate) of imbibed test squares; assay type: physicochemical; details: for OD @ SATURATION: UV exposure continued for 20 minutes; for OD @ SATURATION / Δ OD/Min SENSITIVITY: 75° F. (23.9° C.); for Δ OD/Min SENSITIVITY: first five (5) seconds of UV exposure, expressed per minute; for BLEACH RATE T1/2: time for absorbance of activated form to reach one half the highest absorbance at room temperature (75° F., 23.9° C.) after removal of activating light
Experimental: as §1, with “The entire assembly was then placed in an oven kept at 135° to 155° C. for a time sufficient to thermally transfer the naphthopyran into the polymeric test square.” left out
The photochromic test squares of Part B were tested for photochromic response rates on an optical bench.
as §2
Change in optical density (ΔOD) of a sample was determined by inserting a photochromic test sample in the bleached state into the sample holder, adjusting the transmittance scale to 100%, opening the shutter from the Xenon lamp to provide ultraviolet radiation to change the sample from the bleached state to an activated (darkened) state, measuring the transmittance through the sample. The transmittance was measured by directing a beam of light from the tungsten lamp at a small angle normal to the surface of the sample, through the sample, and to a photopic filter, light detector and radiometer assembly. The photopic filter passes wavelengths such that the detector mimics the response of the human eye and produces output signals that are processed by the radiometer. The change in optical density was calculated according to the formula ΔOD=log(100/% Ta) where % Ta is the percent transmittance in the activated state and the logarithm is to the base 10.
as §3, with “occurs.” for “occurs. The bleach rate (T 1/2) is the time interval in seconds for the absorbance of the activated form of the naphthopyran in the test squares to reach one half the highest absorbance at room temperature (75° F., 23.9° C.) after removal of the source of activating light.”

[4] = cited from earlier work
[5] = vs 3,3-diphenyl-3H-naphtho[2,1-b]pyran and 5-, 7- or 9-methoxy compounds, U.S. Pat. No. 5,238,981

Row | SMILES | Lambda max (UV) [1] | LAMBDA MAX (VIS) [2] | OD @ SATURATION [3] | Δ OD/Min SENSITIVITY [3] | BLEACH RATE T1/2 [3] | also measured
1 | C1=CC(c2ccccc2)(c2ccccc2)Oc2ccc3ccccc3c21 [Comparative Example 1, 3,3-diphenyl-3H-naphtho[2,1-b]pyran, reference compound] | 359 | 430 nm | 0.36 | 0.87 Δ OD/Min | 0.75 min | optical density at saturation ([4]; at room temperature and above): too low for use in optical applications; optical density change on exposure to ultraviolet light ([4]; at room temperature and above): changes too slowly; sensitivity on exposure to ultraviolet light ([4]; at room temperature and above): low
2 | COc1ccc2c3c(ccc2c1)OC(c1ccccc1)(c1ccccc1)C=C3 [Comparative Example 2, 3,3-diphenyl-8-methoxy-3H-naphtho[2,1-b]pyran, reference compound] | 376 | 473 nm | 0.73 | 1.25 Δ OD/Min | 1.45 min | lambda max (UV), in words ([4]; near visible threshold range about 390 to 410 nanometers, U.S. Pat. No. 5,238,981): shifted towards the near visible threshold range; optical density at saturation, comparison in words [4, 5]: enhanced sensitivity and optical density at saturation; sensitivity, comparison in words [4, 5]: enhanced sensitivity
3 | Cc1cccc(C2(c3ccccc3)C=Cc3c(ccc4c5c(ccc34)OC(C)C5)O2)c1 (stereo not drawn) [Example 1, 7-(phenyl)-7-(3-methylphenyl)-7H-2-methyl-2,3-dihydrofuro[3',2',:5,6]naphtho[2,1-b]pyran] | 394 | – | – | – | – | –
4 | CC1Cc2c(ccc3c4c(ccc23)OC(c2ccccc2)(c2ccccc2)C=C4)O1 (stereo not drawn) [Example 2, 7,7-diphenyl-7H-2-methyl-2,3-dihydrofuro[3',2',:5,6]naphtho[2,1-b]pyran] | 394 | 488 nm | 0.66 | 1.35 Δ OD/Min | 1.77 min | –
5 | CC1Cc2c(ccc3c4c(ccc23)OC(c2ccccc2)(c2cccc(C(F)(F)F)c2)C=C4)O1 (stereo not drawn) [Example 3, 7-(phenyl)-7-(3-trifluoromethylphenyl)-7H-2-methyl-2,3-dihydrofuro[3',2',:5,6]naphtho[2,1-b]pyran] | 396 | 494 nm | 0.74 | 1.38 Δ OD/Min | 2.18 min | –
6 | CC1Cc2c(ccc3c4c(ccc23)OC(c2ccccc2)(c2cccc(F)c2)C=C4)O1 (stereo not drawn) [Example 4, 7-(phenyl)-7-(3-fluorophenyl)-7H-2-methyl-2,3-dihydrofuro[3',2',:5,6]naphtho[2,1-b]pyran] | 394 | 489 nm | 0.76 | 1.44 Δ OD/Min | 1.82 min | –
7 | COc1cccc(C2(c3ccccc3)C=Cc3c(ccc4c5c(ccc34)OC(C)C5)O2)c1 (stereo not drawn) [Example 5, 7-(phenyl)-7-(3-methoxyphenyl)-7H-2-methyl-2,3-dihydrofuro[3',2',:5,6]naphtho[2,1-b]pyran] | 395 | 495 nm | 0.74 | 1.43 Δ OD/Min | 2.75 min | –
8 | COc1ccc(C2(c3ccccc3F)C=Cc3c(ccc4c5c(ccc34)OC(C)C5)O2)cc1 (stereo not drawn) [Example 6, 7-(2-fluorophenyl)-7-(4-methoxyphenyl)-7H-2-methyl-2,3-dihydrofuro[3',2',:5,6]naphtho[2,1-b]pyran] | 393 | – | – | – | – | –
9 | Cc1coc2ccc3c4c(ccc3c12)OC(c1ccccc1)(c1ccccc1)C=C4 [Example 7, 7,7-diphenyl-7H-3-methylfuro[3',2',:5,6]naphtho[2,1-b]pyran] | 372 | – | – | – | – | –
10 | C1=CC(c2ccccc2)(c2ccccc2)Oc2ccc3c4c(ccc3c21)OCCC4 [Example 8, 9,9-diphenyl-3H,9H-1,2-dihydronaphtho[2,1-b:6,5-b']dipyran] | 382 | – | – | – | – | –
11 | COc1ccc(C2(c3ccc(OC)cc3OC)C=Cc3c(ccc4c3ccc3oc(=O)cc(C)c34)O2)cc1 (stereo not drawn) [Example 9, 9-(2,4-dimethoxyphenyl)-9-(4'-methoxyphenyl)-1-methyl-3H,9H-naphtho[2,1-b:6,5-b']dipyran-3-one] | 396 | – | – | – | – | –
12 | COc1ccc(C2(c3ccc(OC)cc3OC)C=Cc3c(ccc4c3ccc3oc(C)cc(=O)c34)O2)cc1 (stereo not drawn) [Example 10, 9-(2,4-dimethoxyphenyl)-9-(4'-methoxyphenyl)-3-methyl-1H,9H-naphtho[2,1-b:6,5-b']dipyran-1-one] | 384 | – | – | – | – | –
